In US6410480B1, “Herbicidally active 3-hydroxy-4-aryl-5-oxopyrazoline derivatives” (Syngenta Crop Protection, Inc., priority 1998, dated 2002):

Key:
Type in all cases: in vivo
Avena [1] = assay: Example B1: pre-emergence herbicidal action, comparison with prior art; details: 500 g of ai/ha, 3 weeks after application, scale 1-9
From the text: (§1) Monocotyledonous and dicotyledonous weeds are sown in standard soil in plastic pots. Immediately after sowing, the test substances are applied (500 l of water/ha) as an aqueous suspension (prepared using a 25% wettable powder (Example F3, b)) or as an emulsion (prepared using a 25% emulsion concentrate (Example F1, c)). The application rate is 500 g of active substance/ha. The test plants are subsequently grown under optimum conditions in a greenhouse. 3 weeks after the application, evaluation is carried out using a nine-level scale of ratings (1=complete damage, 9=no effect). Ratings of 1 to 4 (in particular 1 to 3) mean a good to very good herbicidal action. Test plants: Alopecurus (Alo), Avena (Ave), Lolium (Lot), Setaria (Set), Panicum (Pan), Sorghum (Sor), Digitaria (Dig), Echinocloa (Ech) and Brachiaria (Bra).

Brachiaria [2] = assay: as above; details: 500 g of ai/ha, 3 weeks after application, scale 1-9
From the text: as §1

Digitaria [3] = assay: as above; details: 500 g of ai/ha, 3 weeks after application, scale 1-9
From the text: as §1

Alopecurus [4] = assay: as above; details: 500 g of ai/ha, 3 weeks after application, scale 1-9
From the text: as §1

Lolium [5] = assay: as above; design: key: 1=complete damage; 9=no effect; Ratings of 1 to 4 (in particular 1 to 3) mean a good to very good herbicidal action; details: 500 g of ai/ha, 3 weeks after application, scale 1-9
From the text: as §1

Sorghum [6] = assay: as above; design: key: 1=complete damage; 9=no effect; Ratings of 1 to 4 (in particular 1 to 3) mean a good to very good herbicidal action; details: 500 g of ai/ha, 3 weeks after application, scale 1-9
From the text: as §1

Echinocloa [7] = assay: as above; design: key: 1=complete damage; 9=no effect; Ratings of 1 to 4 (in particular 1 to 3) mean a good to very good herbicidal action; details: 500 g of ai/ha, 3 weeks after application, scale 1-9
From the text: as §1

Setaria [8] = assay: as above; design: key: 1=complete damage; 9=no effect; Ratings of 1 to 4 (in particular 1 to 3) mean a good to very good herbicidal action; details: 500 g of ai/ha, 3 weeks after application, scale 1-9
From the text: as §1

Panicum [9] = assay: as above; design: key: 1=complete damage; 9=no effect; Ratings of 1 to 4 (in particular 1 to 3) mean a good to very good herbicidal action; details: 500 g of ai/ha, 3 weeks after application, scale 1-9
From the text: as §1

Avena [10] = assay: Example B2: post-emergence herbicidal action, comparison with prior art; design: key: 1=complete damage; 9=no effect; Ratings of 1 to 4 (in particular 1 to 3) mean a good to very good herbicidal action; details: 3- to 6-leaf stage, 500 g of ai/ha, 3 weeks after application, scale 1-9
Protocol: (§2) Monocotyledonous and dicotyledonous weeds are grown in standard soil in plastic pots under greenhouse conditions. The test substances are applied at the 3- to 6-leaf stage of the test plants. The test substances are applied (500 l of water/ha) as an aqueous suspension (prepared using a 25% wettable powder (Example F3, b)) or as an emulsion (prepared using a 25% emulsion concentrate (Example F1, c)) at an application rate of 500 g of active substance/ha. 3 weeks after the application, evaluation is carried out using a nine-level scale of ratings (1=complete damage, 9=no effect). Ratings of 1 to 4 (in particular 1 to 3) mean a good to very good herbicidal action. Test plants: Alopecurus (Alo), Avena (Ave), Lolium (Lol), Setaria (Set), Panicum (Pan), Sorghum (Sor), Digitaria (Dig), Echinocloa (Ech) and Brachiaria (Bra).

Brachiaria [11] = assay: as above; design: key: 1=complete damage; 9=no effect; Ratings of 1 to 4 (in particular 1 to 3) mean a good to very good herbicidal action; details: 3- to 6-leaf stage, 500 g of ai/ha, 3 weeks after application, scale 1-9
Protocol: as §2

Lolium [12] = assay: as above; design: key: 1=complete damage; 9=no effect; Ratings of 1 to 4 (in particular 1 to 3) mean a good to very good herbicidal action; details: 3- to 6-leaf stage, 500 g of ai/ha, 3 weeks after application, scale 1-9
Protocol: as §2

Digitaria [13] = assay: as above; design: key: 1=complete damage; 9=no effect; Ratings of 1 to 4 (in particular 1 to 3) mean a good to very good herbicidal action; details: 3- to 6-leaf stage, 500 g of ai/ha, 3 weeks after application, scale 1-9
Protocol: as §2

Sorghum [14] = assay: as above; design: key: 1=complete damage; 9=no effect; Ratings of 1 to 4 (in particular 1 to 3) mean a good to very good herbicidal action; details: 3- to 6-leaf stage, 500 g of ai/ha, 3 weeks after application, scale 1-9
Protocol: as §2

Echinocloa [15] = assay: as above; design: key: 1=complete damage; 9=no effect; Ratings of 1 to 4 (in particular 1 to 3) mean a good to very good herbicidal action; details: 3- to 6-leaf stage, 500 g of ai/ha, 3 weeks after application, scale 1-9
Protocol: as §2

Setaria [16] = assay: as above; design: key: 1=complete damage; 9=no effect; Ratings of 1 to 4 (in particular 1 to 3) mean a good to very good herbicidal action; details: 3- to 6-leaf stage, 500 g of ai/ha, 3 weeks after application, scale 1-9
Protocol: as §2

Panicum [17] = assay: as above; design: key: 1=complete damage; 9=no effect; Ratings of 1 to 4 (in particular 1 to 3) mean a good to very good herbicidal action; details: 3- to 6-leaf stage, 500 g of ai/ha, 3 weeks after application, scale 1-9
Protocol: as §2

Alopecurus [18] = assay: as above; details: 3- to 6-leaf stage, 500 g of ai/ha, 3 weeks after application, scale 1-9
Protocol: as §2

Avena [19] = assay: Example B3: pre-emergence herbicidal action of compounds of the invention; design: key: 1=complete damage; 9=no effect; Ratings of 1 to 4 (in particular 1 to 3) mean a good to very good herbicidal action; details: 500 g of active substance/ha, 3 weeks after application, scale 1-9
Protocol: as §1, with “grown” for “sown”, “Directly” for “Immediately”, “greenhouse” for “greenhouse.”, “plants:” for “plants: Alopecurus (Alo),”, “(Lol),” for “(Lot),”, “(Set).” for “(Set), Panicum (Pan), Sorghum (Sor), Digitaria (Dig), Echinocloa (Ech) and Brachiaria (Bra).”

Lolium [20] = assay: as above; design: key: 1=complete damage; 9=no effect; Ratings of 1 to 4 (in particular 1 to 3) mean a good to very good herbicidal action; details: 500 g of active substance/ha, 3 weeks after application, scale 1-9
Protocol: as §1, with “grown” for “sown”, “Directly” for “Immediately”, “greenhouse” for “greenhouse.”, “plants:” for “plants: Alopecurus (Alo),”, “(Lol),” for “(Lot),”, “(Set).” for “(Set), Panicum (Pan), Sorghum (Sor), Digitaria (Dig), Echinocloa (Ech) and Brachiaria (Bra).”

Setaria [21] = assay: as above; design: key: 1=complete damage; 9=no effect; Ratings of 1 to 4 (in particular 1 to 3) mean a good to very good herbicidal action; details: 500 g of active substance/ha, 3 weeks after application, scale 1-9
Protocol: as §1, with “grown” for “sown”, “Directly” for “Immediately”, “greenhouse” for “greenhouse.”, “plants:” for “plants: Alopecurus (Alo),”, “(Lol),” for “(Lot),”, “(Set).” for “(Set), Panicum (Pan), Sorghum (Sor), Digitaria (Dig), Echinocloa (Ech) and Brachiaria (Bra).”

Avena [22] = assay: Example B4: post-emergence herbicidal action of compounds of the invention; design: key: 1=complete damage; 9=no effect; Ratings of 1 to 4 (in particular 1 to 3) mean a good to very good herbicidal action; details: 3- to 6-leaf stage, 250 g of active substance/ha, 3 weeks after application, scale 1-9
Protocol: as §2, with “of 250” for “of 500”, “plants:” for “plants: Alopecurus (Alo),”, “Setaria (Set).” for “Setaria (Set), Panicum (Pan), Sorghum (Sor), Digitaria (Dig), Echinocloa (Ech) and Brachiaria (Bra).”

Lolium [23] = assay: as above; design: key: 1=complete damage; 9=no effect; Ratings of 1 to 4 (in particular 1 to 3) mean a good to very good herbicidal action; details: 3- to 6-leaf stage, 250 g of active substance/ha, 3 weeks after application, scale 1-9
Protocol: as §2, with “of 250” for “of 500”, “plants:” for “plants: Alopecurus (Alo),”, “Setaria (Set).” for “Setaria (Set), Panicum (Pan), Sorghum (Sor), Digitaria (Dig), Echinocloa (Ech) and Brachiaria (Bra).”

Setaria [24] = assay: as above; design: key: 1=complete damage; 9=no effect; Ratings of 1 to 4 (in particular 1 to 3) mean a good to very good herbicidal action; details: 3- to 6-leaf stage, 250 g of active substance/ha, 3 weeks after application, scale 1-9
Protocol: as §2, with “of 250” for “of 500”, “plants:” for “plants: Alopecurus (Alo),”, “Setaria (Set).” for “Setaria (Set), Panicum (Pan), Sorghum (Sor), Digitaria (Dig), Echinocloa (Ech) and Brachiaria (Bra).”

Structure (SMILES)	Pre-emergence action, Ave (rating) (Avena [1])	Pre-emergence action, Bra (rating) (Brachiaria [2])	Pre-emergence action, Dig (rating) (Digitaria [3])	Pre-emergence action, Alo (rating) (Alopecurus [4])	Pre-emergence action, Lol (rating) (Lolium [5])	Pre-emergence action, Sor (rating) (Sorghum [6])	Pre-emergence action, Ech (rating) (Echinocloa [7])	Pre-emergence action, Set (rating) (Setaria [8])	Pre-emergence action, Pan (rating) (Panicum [9])	Post-emergence action, Ave (rating) (Avena [10])	Post-emergence action, Bra (rating) (Brachiaria [11])	Post-emergence action, Lol (rating) (Lolium [12])	Post-emergence action, Dig (rating) (Digitaria [13])	Post-emergence action, Sor (rating) (Sorghum [14])	Post-emergence action, Ech (rating) (Echinocloa [15])	Post-emergence action, Set (rating) (Setaria [16])	Post-emergence action, Pan (rating) (Panicum [17])	Post-emergence action, Ave (rating) (Avena [22])	Post-emergence action, Lol (rating) (Lolium [23])	Post-emergence action, Set (rating) (Setaria [24])	further results
Cc1cc(C)c(-c2c(O)n3n(c2=O)CCOCC3)c(C)c1 [1.001]	4	2	2	3	1	1	1	1	1	1	1	1	1	1	1	1	1	1	1	2	Post-emergence action, Alo (rating) (Alopecurus [18]): 2; Pre-emergence action, Ave (rating) (Avena [19]): 4; Pre-emergence action, Lol (rating) (Lolium [20]): 1; Pre-emergence action, Set (rating) (Setaria [21]): 1
CCc1cc(Br)cc(C)c1-c1c(OC(=O)C(C)(C)C)n2n(c1=O)CCOCC2 [1.085]																		1	2	2	
CCc1cc(C)cc(C)c1-c1c(O)n2n(c1=O)CCOCC2 [1.004]																					Pre-emergence action, Ave (rating) (Avena [19]): 1; Pre-emergence action, Lol (rating) (Lolium [20]): 1; Pre-emergence action, Set (rating) (Setaria [21]): 2
Cc1cc(C)c(C2C(=O)N3CCCCCN3C2=O)c(C)c1 [compound A, reference compound]	7	3	7	5	4	6	5	3	7	2	2	5	5	3	1	4	2				Post-emergence action, Alo (rating) (Alopecurus [18]): 5
C#Cc1cc(C)cc(C)c1-c1c(OC(=O)C(C)(C)C)n2n(c1=O)CCOCC2 [1.016]																		3	2	2	
